Test: recombinant barcode read abundance after kanamycin selection (control-corrected) (log10(CPM+1)); higher = more efficient recombination; sequences stand for … in AGTGCAGAGAAAATCGGCCAGTTTTCTCTGCCTGCAGTCCGCATGCCGT…ATTTATGCAGCGGACTGCCTTTCTCCCAAAGTGATAAACCGGACAGTATCATGGACCGGTTTTCCCGGTAATCCGTATTTGCAAGGTTGGTTTCACT; site = the 11-nt target
Procedure: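 Same pooled E. coli target screen (IS621 bridge recombinase, kanamycin selection, control-corrected CPM, mean of 2 biological replicates). Here the two core-binding nucleotides of the LTG and RTG of the bridge RNA target-binding loop are mutated. Target and donor CT cores are held constant, and the other 9 guide positions match the target. The target is read from the library oligo sequence. Molecule = full bridge RNA written as DNA: nt 1-80 from the library oligo, rest WT scaffold.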

## AGTCTTAATTGGGTTCTAACCTGTTGCCAAT [AGTCTTACTTG_LTGcore_AT_RTGcore_AT] (site AGTCTTACTTG) (LTG core: AT, RTG core: AT)
  recombinant barcode read abundance (log10): 0.0434

## AGTCTTACCTGGGTTCTAACCTGTTGCCAGG [AGTCTTACTTG_LTGcore_CC_RTGcore_CC] (site AGTCTTACTTG) (LTG core: CC, RTG core: CC)
  recombinant barcode read abundance (log10): 0.117

## AGTCTTACTTGGGTTCTAACCTGTTGCCACA [AGTCTTACTTG_LTGcore_CT_RTGcore_TG] (site AGTCTTACTTG) (LTG core: CT, RTG core: TG)
  recombinant barcode read abundance (log10): 0.032

## AGTCTTATATGGGTTCTAACCTGTTGCCAAG [AGTCTTACTTG_LTGcore_TA_RTGcore_CT] (site AGTCTTACTTG) (LTG core: TA, RTG core: CT)
  recombinant barcode read abundance (log10): 0.0306

## AGTCTTATTTGGGTTCTAACCTGTTGCCAAA [AGTCTTACTTG_LTGcore_TT_RTGcore_TT] (site AGTCTTACTTG) (LTG core: TT, RTG core: TT)
  recombinant barcode read abundance (log10): 0.0474

## ATGCTTTAATGGGTTCTAACCTGTTGCCTAG [ATGCTTTCTAG_LTGcore_AA_RTGcore_CT] (site ATGCTTTCTAG) (LTG core: AA, RTG core: CT)
  recombinant barcode read abundance (log10): 0.0699

## ATGCTTTATTGGGTTCTAACCTGTTGCCTAG [ATGCTTTCTAG_LTGcore_AT_RTGcore_CT] (site ATGCTTTCTAG) (LTG core: AT, RTG core: CT)
  recombinant barcode read abundance (log10): 0.162

## ATGCTTTCTTGGGTTCTAACCTGTTGCCTAG [ATGCTTTCTAG_LTGcore_CT_RTGcore_CT] (site ATGCTTTCTAG) (LTG core: CT, RTG core: CT)
  recombinant barcode read abundance (log10): 0.384

## ATGCTTTCTTGGGTTCTAACCTGTTGCCTCT [ATGCTTTCTAG_LTGcore_CT_RTGcore_AG] (site ATGCTTTCTAG) (LTG core: CT, RTG core: AG)
  recombinant barcode read abundance (log10): 0.0217

## ATGCTTTCTTGGGTTCTAACCTGTTGCCTGA [ATGCTTTCTAG_LTGcore_CT_RTGcore_TC] (site ATGCTTTCTAG) (LTG core: CT, RTG core: TC)
  recombinant barcode read abundance (log10): 0.0714

## ATGCTTTGCTGGGTTCTAACCTGTTGCCTAG [ATGCTTTCTAG_LTGcore_GC_RTGcore_CT] (site ATGCTTTCTAG) (LTG core: GC, RTG core: CT)
  recombinant barcode read abundance (log10): 0.0505

## ATGCTTTGGTGGGTTCTAACCTGTTGCCTCC [ATGCTTTCTAG_LTGcore_GG_RTGcore_GG] (site ATGCTTTCTAG) (LTG core: GG, RTG core: GG)
  recombinant barcode read abundance (log10): 0.235

## ATGTCCCACTGGGTTCTAACCTGTTGCTCGT [ATGTCCCCTGA_LTGcore_AC_RTGcore_AC] (site ATGTCCCCTGA) (LTG core: AC, RTG core: AC)
  recombinant barcode read abundance (log10): 0.183

## ATGTCCCAGTGGGTTCTAACCTGTTGCTCAG [ATGTCCCCTGA_LTGcore_AG_RTGcore_CT] (site ATGTCCCCTGA) (LTG core: AG, RTG core: CT)
  recombinant barcode read abundance (log10): 0.0996

## ATGTCCCATTGGGTTCTAACCTGTTGCTCAG [ATGTCCCCTGA_LTGcore_AT_RTGcore_CT] (site ATGTCCCCTGA) (LTG core: AT, RTG core: CT)
  recombinant barcode read abundance (log10): 0.234

## ATGTCCCCTTGGGTTCTAACCTGTTGCTCCG [ATGTCCCCTGA_LTGcore_CT_RTGcore_CG] (site ATGTCCCCTGA) (LTG core: CT, RTG core: CG)
  recombinant barcode read abundance (log10): 0.249

## ATGTCCCCTTGGGTTCTAACCTGTTGCTCGC [ATGTCCCCTGA_LTGcore_CT_RTGcore_GC] (site ATGTCCCCTGA) (LTG core: CT, RTG core: GC)
  recombinant barcode read abundance (log10): 0.327

## ATGTCCCCTTGGGTTCTAACCTGTTGCTCGG [ATGTCCCCTGA_LTGcore_CT_RTGcore_CC] (site ATGTCCCCTGA) (LTG core: CT, RTG core: CC)
  recombinant barcode read abundance (log10): 0.29

## ATGTCCCGATGGGTTCTAACCTGTTGCTCAG [ATGTCCCCTGA_LTGcore_GA_RTGcore_CT] (site ATGTCCCCTGA) (LTG core: GA, RTG core: CT)
  recombinant barcode read abundance (log10): 0.647

## ATGTCCCGGTGGGTTCTAACCTGTTGCTCAG [ATGTCCCCTGA_LTGcore_GG_RTGcore_CT] (site ATGTCCCCTGA) (LTG core: GG, RTG core: CT)
  recombinant barcode read abundance (log10): 0.294

## ATGTCCCGTTGGGTTCTAACCTGTTGCTCAC [ATGTCCCCTGA_LTGcore_GT_RTGcore_GT] (site ATGTCCCCTGA) (LTG core: GT, RTG core: GT)
  recombinant barcode read abundance (log10): 0.0823

## ATGTCCCTCTGGGTTCTAACCTGTTGCTCAG [ATGTCCCCTGA_LTGcore_TC_RTGcore_CT] (site ATGTCCCCTGA) (LTG core: TC, RTG core: CT)
  recombinant barcode read abundance (log10): 0.209

## ATGTCCCTGTGGGTTCTAACCTGTTGCTCAG [ATGTCCCCTGA_LTGcore_TG_RTGcore_CT] (site ATGTCCCCTGA) (LTG core: TG, RTG core: CT)
  recombinant barcode read abundance (log10): 0.0616

## ATGTCCCTGTGGGTTCTAACCTGTTGCTCCA [ATGTCCCCTGA_LTGcore_TG_RTGcore_TG] (site ATGTCCCCTGA) (LTG core: TG, RTG core: TG)
  recombinant barcode read abundance (log10): 0.0547

## CATATTAACTGGGTTCTAACCTGTTGCCTAG [CATATTACTAG_LTGcore_AC_RTGcore_CT] (site CATATTACTAG) (LTG core: AC, RTG core: CT)
  recombinant barcode read abundance (log10): 0.441

## CATATTACCTGGGTTCTAACCTGTTGCCTAG [CATATTACTAG_LTGcore_CC_RTGcore_CT] (site CATATTACTAG) (LTG core: CC, RTG core: CT)
  recombinant barcode read abundance (log10): 0.0888

## CATATTACTTGGGTTCTAACCTGTTGCCTCC [CATATTACTAG_LTGcore_CT_RTGcore_GG] (site CATATTACTAG) (LTG core: CT, RTG core: GG)
  recombinant barcode read abundance (log10): 0.2

## CATATTACTTGGGTTCTAACCTGTTGCCTTA [CATATTACTAG_LTGcore_CT_RTGcore_TA] (site CATATTACTAG) (LTG core: CT, RTG core: TA)
  recombinant barcode read abundance (log10): 0.12

## CATATTACTTGGGTTCTAACCTGTTGCCTTG [CATATTACTAG_LTGcore_CT_RTGcore_CA] (site CATATTACTAG) (LTG core: CT, RTG core: CA)
  recombinant barcode read abundance (log10): 0.214

## CATATTAGATGGGTTCTAACCTGTTGCCTAG [CATATTACTAG_LTGcore_GA_RTGcore_CT] (site CATATTACTAG) (LTG core: GA, RTG core: CT)
  recombinant barcode read abundance (log10): 0.239

## CGAGCCCAATGGGTTCTAACCTGTTGCTGTT [CGAGCCCCTCA_LTGcore_AA_RTGcore_AA] (site CGAGCCCCTCA) (LTG core: AA, RTG core: AA)
  recombinant barcode read abundance (log10): 0.0507

## CGAGCCCCTTGGGTTCTAACCTGTTGCTGAT [CGAGCCCCTCA_LTGcore_CT_RTGcore_AT] (site CGAGCCCCTCA) (LTG core: CT, RTG core: AT)
  recombinant barcode read abundance (log10): 0.29

## CGAGCCCCTTGGGTTCTAACCTGTTGCTGCT [CGAGCCCCTCA_LTGcore_CT_RTGcore_AG] (site CGAGCCCCTCA) (LTG core: CT, RTG core: AG)
  recombinant barcode read abundance (log10): 0.203

## CGAGCCCCTTGGGTTCTAACCTGTTGCTGGT [CGAGCCCCTCA_LTGcore_CT_RTGcore_AC] (site CGAGCCCCTCA) (LTG core: CT, RTG core: AC)
  recombinant barcode read abundance (log10): 1.21
